Assay results taken from patent US20230013669A1, “Antibacterial Treatment Using a Cannabinoid and an Active Agent” (priority 2019, published 2023).
Several values for one entry are separate records, joined by “and”; a condition that tells them apart may be missing. Equal values may be shown once.

Test system: Acinetobacter baumannii ATCC 19606 (GN_034)
Assay: Synergy of cannabidiol with cell-wall disrupting agent (CBD MIC in combination, FICI)
Type: cell-based
Experimental: The compounds were stored short term at 4° C.
Analysis was performed using Microsoft Excel.

[1] = CBD with Colistin, Acinetobacter baumannii ATCC 19606
[2] = CBD with MCC_6442, Acinetobacter baumannii ATCC 19606

For `C=C(C)C1CCC(C)=CC1c1c(O)cc(CCCCC)cc1O` (centres unmarked) [Cannabidiol, 2-[3-methyl-6-(1-methylethenyl)-2-cyclohexen-1-yl]-5-pentyl-1,3-benzenediol], the FICI (CBD with Aztreonam at 8 μg/mL, CBD MIC taken as 256 μg/mL) was 0.375, the FICI (CBD with Aztreonam at 16 μg/mL, CBD MIC taken as 256 μg/mL) was 0.5 and the FICI range (CBD with Aztreonam, all tested concentrations (Table 74)) was 0.25-1.06. It also gave an FICI (CBD with Cefepime at 0.25 μg/mL, CBD MIC taken as 256 μg/mL) of 1.016, an FICI (CBD with Cefepime at 0.5 μg/mL, CBD MIC taken as 256 μg/mL) of 1.031 and an FICI (CBD with Cefepime at 1 μg/mL, CBD MIC taken as 256 μg/mL) of 1.0625. It also gave an FICI (CBD with Cefepime at 2 μg/mL, CBD MIC taken as 256 μg/mL) of 1.125, an FICI (CBD with Cefepime at 4 μg/mL, CBD MIC taken as 256 μg/mL) of 0.375 and an FICI (CBD with Cefepime at 8 μg/mL, CBD MIC taken as 256 μg/mL) of 0.5625. For the same molecule, the FICI range (CBD with Cefepime, Synergy table (Table 81)) was 0.38, the FICI range (CBD with Cefepime, all tested concentrations (Table 79)) was 0.38-1.13 and the FICI (CBD with Cefotetan at 4 μg/mL, CBD MIC taken as 256 μg/mL) was 1.016. It also gave an FICI (CBD with Cefotetan at 8 μg/mL, CBD MIC taken as 256 μg/mL) of 1.031, an FICI (CBD with Cefotetan at 16 μg/mL, CBD MIC taken as 256 μg/mL) of 1.0625 and an FICI (CBD with Cefotetan at 32 μg/mL, CBD MIC taken as 256 μg/mL) of 1.125. The FICI (CBD with Cefotetan at 64 μg/mL, CBD MIC taken as 256 μg/mL) was 1.25, the FICI (CBD with Cefotetan at 128 μg/mL, CBD MIC taken as 256 μg/mL) was 1.5 and the “FICI range (MIC table)” value (CBD with Cefotetan, Acinetobacter baumannii ATCC 19606) was 1.02-1.5. The FICI (CBD with Ceftazidime at 0.5 μg/mL, Acinetobacter baumannii ATCC 19606) was 1.125, the FICI (CBD with Ceftazidime at 1 μg/mL, Acinetobacter baumannii ATCC 19606) was 1.25 and the FICI (CBD with Ceftazidime at 2 μg/mL, Acinetobacter baumannii ATCC 19606) was 1.5. For the same molecule, the FICI (CBD with Ceftazidime at 4 μg/mL, Acinetobacter baumannii ATCC 19606) was 1.125, the FICI (CBD with Ceftazidime at 8 μg/mL, Acinetobacter baumannii ATCC 19606) was 2.0625 and the FICI (CBD with Ceftazidime at 16 μg/mL, Acinetobacter baumannii ATCC 19606) was 4. The “FICI range (MIC table)” value (CBD with Ceftazidime, Acinetobacter baumannii ATCC 19606) was 1.13-4, the FICI (CBD with Cefuroxime at 4 μg/mL, Acinetobacter baumannii ATCC 19606) was 1.0625 and the FICI (CBD with Cefuroxime at 8 μg/mL, Acinetobacter baumannii ATCC 19606) was 1.125. The FICI (CBD with Cefuroxime at 16 μg/mL, Acinetobacter baumannii ATCC 19606) was 0.375, the FICI (CBD with Cefuroxime at 32 μg/mL, Acinetobacter baumannii ATCC 19606, listed as CBD) was 0.5625 and 0.625 and the FICI (CBD with Cefuroxime at 64 μg/mL, Acinetobacter baumannii ATCC 19606) was 1. For the same molecule, the FICI (CBD with Cefuroxime at 128 μg/mL, Acinetobacter baumannii ATCC 19606) was 2, the “FICI range (Synergy table)” value (CBD with Cefuroxime, Acinetobacter baumannii ATCC 19606) was 0.38 and the FICI (CBD with Colistin at 0.031 μg/mL, Acinetobacter baumannii ATCC 19606) was 0.04662. For the same molecule, the FICI (CBD with Colistin at 0.062 μg/mL, Acinetobacter baumannii ATCC 19606) was 0.06981, the FICI (CBD with Colistin at 0.5 μg/mL, Acinetobacter baumannii ATCC 19606, listed as CBD) was 0.501 and 0.5039 and the FICI (CBD with Colistin at 1 μg/mL, Acinetobacter baumannii ATCC 19606) was 1. For the same molecule, the “FICI range (MIC table)” value [1] was 0.05-1, the “FICI range (Synergy table)” value [1] was 0.05-0.5 and the “FICI range (MIC table)” value [2] was 0.07-1.02. For the same molecule, the “FICI range (Synergy table)” value [2] was 0.09-1.13, the FICI (CBD with MCC_6442 at 0.5 μg/mL, Acinetobacter baumannii ATCC 19606) was 1.016 and the FICI (CBD with MCC_6442 at 1 μg/mL, Acinetobacter baumannii ATCC 19606) was 0.09375. For the same molecule, the FICI (CBD with MCC_6442 at 2 μg/mL, Acinetobacter baumannii ATCC 19606) was 0.06641, the FICI (CBD with MCC_6442 at 4 μg/mL, Acinetobacter baumannii ATCC 19606) was 0.127 and the FICI range (CBD with Octapeptin C4, Synergy table (Table 85), listed as CBD) was 0.28-0.5 and 0.19-0.5. The FICI range (CBD with Octapeptin C4, all tested concentrations (Table 83), listed as CBD) was 0.28-1.13 and 0.19-1.06, the FICI (CBD with Octapeptin C4 at 0.25 μg/mL, CBD MIC taken as 256 μg/mL) was 1.031 and the FICI (CBD with Octapeptin C4 at 0.25 μg/mL, CBD MIC taken as 256 μg/mL, listed as cannabidiol) was 1.016. The FICI (CBD with Octapeptin C4 at 0.5 μg/mL, CBD MIC taken as 256 μg/mL) was 1.0625 and 1.031, the FICI (CBD with Octapeptin C4 at 1 μg/mL, CBD MIC taken as 256 μg/mL) was 1.125 and 1.0625 and the FICI (CBD with Octapeptin C4 at 2 μg/mL, CBD MIC taken as 256 μg/mL) was 0.2812 and 0.1875. For the same molecule, the FICI (CBD with Octapeptin C4 at 4 μg/mL, CBD MIC taken as 256 μg/mL) was 0.5078 and 0.2578 and the FICI (CBD with Octapeptin C4 at […], CBD MIC taken as 256 μg/mL) was 1.016.
